Assays:
Test in all cases: KINOMEscan
Assay type in all cases: binding
ALK (C1156Y) = target: T1, ALK (C1156Y) (Homo sapiens, UniProt Q9UM73, C1156Y)
T1 construct: purchased Eurofins DiscoverX KINOMEscan
Outline: (§1)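 Dissociation constants derive from a 12-point, half-log compound titration (highest 33 μM). Each binding reaction ran 1 h at room temperature before qPCR quantification of kinase captured on an immobilized affinity ligand.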

CAMK1D = target: T2, CAMK1D (Homo sapiens, UniProt Q8IU85)
T2 construct: purchased Eurofins DiscoverX KINOMEscan
T2 sequence (Q8IU85 whole entry): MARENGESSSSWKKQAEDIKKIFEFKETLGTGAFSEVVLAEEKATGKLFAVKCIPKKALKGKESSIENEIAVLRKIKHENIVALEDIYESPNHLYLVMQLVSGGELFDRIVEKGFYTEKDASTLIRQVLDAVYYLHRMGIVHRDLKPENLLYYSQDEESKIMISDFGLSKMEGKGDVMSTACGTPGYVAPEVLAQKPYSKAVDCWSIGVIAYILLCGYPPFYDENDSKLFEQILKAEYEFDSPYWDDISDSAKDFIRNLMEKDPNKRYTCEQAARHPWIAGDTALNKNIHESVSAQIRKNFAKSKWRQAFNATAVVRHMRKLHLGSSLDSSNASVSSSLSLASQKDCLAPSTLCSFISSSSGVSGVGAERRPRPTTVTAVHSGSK
Outline: as §1

CDC2L5 = target: T3, CDC2L5 (Homo sapiens, UniProt Q14004)
T3 construct: purchased Eurofins DiscoverX KINOMEscan
Outline: as §1

CLK2 = target: T4, CLK2 (Homo sapiens, UniProt P49760)
T4 construct: purchased Eurofins DiscoverX KINOMEscan
Outline: (§2)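 Quantitative PCR measured kinase retained on an immobilized affinity ligand, i.e. kinase not bound by test compound, after 1 h binding at room temperature. Kd came from 12 half-log concentrations up to 33 μM.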

CSF1R-autoinhibited = target: T5, CSF1R-autoinhibited (Homo sapiens, UniProt P07333)
T5 construct: purchased Eurofins DiscoverX KINOMEscan
T5 sequence (P07333 539-972 limits assumed): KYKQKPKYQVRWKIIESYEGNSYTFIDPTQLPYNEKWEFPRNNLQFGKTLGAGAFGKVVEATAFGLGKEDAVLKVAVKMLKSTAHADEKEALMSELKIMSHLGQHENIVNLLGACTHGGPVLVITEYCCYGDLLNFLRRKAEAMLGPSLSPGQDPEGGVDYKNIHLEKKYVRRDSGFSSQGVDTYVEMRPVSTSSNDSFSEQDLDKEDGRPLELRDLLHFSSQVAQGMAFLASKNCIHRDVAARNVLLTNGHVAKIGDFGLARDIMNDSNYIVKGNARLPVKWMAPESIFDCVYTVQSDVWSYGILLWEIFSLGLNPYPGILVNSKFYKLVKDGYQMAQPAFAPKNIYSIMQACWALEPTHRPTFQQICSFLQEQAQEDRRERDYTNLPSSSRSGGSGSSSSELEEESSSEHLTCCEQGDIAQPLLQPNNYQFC
Outline: as §1

DYRK2 = target: T6, DYRK2 (Homo sapiens, UniProt Q92630)
T6 construct: purchased Eurofins DiscoverX KINOMEscan
Outline: as §1

EGFR (L858R) = target: T7, EGFR (L858R) (Homo sapiens, UniProt P00533, L858R)
T7 construct: purchased Eurofins DiscoverX KINOMEscan
Outline: as §2

EIF2AK1 = target: T8, EIF2AK1 (Homo sapiens, UniProt Q9BQI3)
T8 construct: purchased Eurofins DiscoverX KINOMEscan
Outline: as §1

EPHA7 = target: T9, EPHA7 (Homo sapiens, UniProt Q15375)
T9 construct: purchased Eurofins DiscoverX KINOMEscan
Outline: as §1

EPHB6 = target: T10, EPHB6 (Homo sapiens, UniProt O15197)
T10 construct: purchased Eurofins DiscoverX KINOMEscan
T10 sequence (O15197 32-1021): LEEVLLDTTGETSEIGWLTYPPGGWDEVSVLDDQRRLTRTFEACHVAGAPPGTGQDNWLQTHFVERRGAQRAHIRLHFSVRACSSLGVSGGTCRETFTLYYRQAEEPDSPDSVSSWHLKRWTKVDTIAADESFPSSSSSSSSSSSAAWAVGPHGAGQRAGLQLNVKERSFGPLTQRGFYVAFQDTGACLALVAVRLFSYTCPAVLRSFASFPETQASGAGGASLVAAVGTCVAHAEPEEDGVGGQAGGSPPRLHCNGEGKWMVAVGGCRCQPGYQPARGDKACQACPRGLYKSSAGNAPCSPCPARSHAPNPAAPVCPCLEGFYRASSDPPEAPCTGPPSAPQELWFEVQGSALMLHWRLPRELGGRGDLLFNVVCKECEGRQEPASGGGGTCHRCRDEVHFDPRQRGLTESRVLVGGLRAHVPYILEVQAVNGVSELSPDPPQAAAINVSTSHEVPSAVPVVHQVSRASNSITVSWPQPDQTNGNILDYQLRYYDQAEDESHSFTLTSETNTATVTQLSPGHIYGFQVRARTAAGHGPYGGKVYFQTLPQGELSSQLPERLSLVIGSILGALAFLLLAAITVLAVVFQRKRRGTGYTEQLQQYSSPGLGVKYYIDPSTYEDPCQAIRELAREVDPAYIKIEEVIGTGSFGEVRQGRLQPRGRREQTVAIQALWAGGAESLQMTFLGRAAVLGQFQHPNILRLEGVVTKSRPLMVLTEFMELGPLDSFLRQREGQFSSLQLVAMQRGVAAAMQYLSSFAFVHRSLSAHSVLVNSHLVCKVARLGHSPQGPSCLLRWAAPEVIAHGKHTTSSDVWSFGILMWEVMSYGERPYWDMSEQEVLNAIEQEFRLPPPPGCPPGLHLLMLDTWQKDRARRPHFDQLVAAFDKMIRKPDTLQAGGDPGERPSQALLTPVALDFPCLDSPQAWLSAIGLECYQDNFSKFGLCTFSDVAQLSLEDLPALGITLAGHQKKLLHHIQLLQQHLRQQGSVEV
Outline: as §1

ERBB3 = target: T11, ERBB3 (Homo sapiens, UniProt P21860)
T11 construct: purchased Eurofins DiscoverX KINOMEscan
Outline: as §1

ERN1 = target: T12, ERN1 (Homo sapiens, UniProt O75460)
T12 construct: purchased Eurofins DiscoverX KINOMEscan
Outline: as §1

FLT3 (D835H) = target: T13, FLT3 (D835H) (Homo sapiens, UniProt P36888, D835H)
T13 construct: purchased Eurofins DiscoverX KINOMEscan
Outline: as §1

GRK1 = target: T14, GRK1 (Homo sapiens, UniProt Q15835)
T14 construct: purchased Eurofins DiscoverX KINOMEscan
Outline: as §1

IKK-ε = target: T15, IKK-ε (Homo sapiens, UniProt Q14164)
T15 construct: purchased Eurofins DiscoverX KINOMEscan
Outline: as §2

KIT (D816H) = target: T16, KIT (D816H) (Homo sapiens, UniProt P10721, D816H)
T16 construct: purchased Eurofins DiscoverX KINOMEscan
T16 sequence (P10721 26-976 D816H): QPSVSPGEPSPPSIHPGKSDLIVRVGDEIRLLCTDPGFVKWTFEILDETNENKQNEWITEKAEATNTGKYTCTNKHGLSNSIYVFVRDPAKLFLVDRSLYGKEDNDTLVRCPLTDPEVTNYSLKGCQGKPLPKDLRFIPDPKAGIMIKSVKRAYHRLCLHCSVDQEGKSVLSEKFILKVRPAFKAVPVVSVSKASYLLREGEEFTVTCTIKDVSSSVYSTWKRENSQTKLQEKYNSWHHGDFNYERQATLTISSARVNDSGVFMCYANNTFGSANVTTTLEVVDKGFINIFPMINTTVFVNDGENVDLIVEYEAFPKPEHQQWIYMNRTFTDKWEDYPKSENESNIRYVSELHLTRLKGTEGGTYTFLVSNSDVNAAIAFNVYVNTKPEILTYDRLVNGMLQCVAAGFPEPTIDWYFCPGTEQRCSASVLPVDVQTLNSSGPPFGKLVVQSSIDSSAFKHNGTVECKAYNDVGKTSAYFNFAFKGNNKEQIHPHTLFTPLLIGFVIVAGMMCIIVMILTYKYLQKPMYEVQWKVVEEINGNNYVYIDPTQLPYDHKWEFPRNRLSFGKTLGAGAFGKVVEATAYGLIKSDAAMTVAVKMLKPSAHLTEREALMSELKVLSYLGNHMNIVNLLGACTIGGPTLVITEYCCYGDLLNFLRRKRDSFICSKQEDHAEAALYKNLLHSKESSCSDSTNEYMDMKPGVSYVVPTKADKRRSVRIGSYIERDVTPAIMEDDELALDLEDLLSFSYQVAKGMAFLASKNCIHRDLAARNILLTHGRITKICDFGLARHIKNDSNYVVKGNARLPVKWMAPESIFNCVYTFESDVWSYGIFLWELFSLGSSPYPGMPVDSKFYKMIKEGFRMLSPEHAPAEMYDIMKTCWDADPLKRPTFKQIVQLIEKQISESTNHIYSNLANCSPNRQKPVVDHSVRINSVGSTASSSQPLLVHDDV
Outline: as §1

KIT (D816V) = target: T17, KIT (D816V) (Homo sapiens, UniProt P10721, D816V)
T17 construct: purchased Eurofins DiscoverX KINOMEscan
T17 sequence (P10721 26-976 D816V): as the sequence (P10721 26-976 D816H) above, with H791V counted along it
Outline: as §1

KIT-autoinhibited = target: T18, KIT-autoinhibited (Homo sapiens, UniProt P10721)
T18 construct: purchased Eurofins DiscoverX KINOMEscan
T18 sequence (P10721 26-976): as the sequence (P10721 26-976 D816H) above, with H791D counted along it
Outline: as §2

LIMK1 = target: T19, LIMK1 (Homo sapiens, UniProt P53667)
T19 construct: purchased Eurofins DiscoverX KINOMEscan
Outline: as §1

MUSK = target: T20, MUSK (Homo sapiens, UniProt O15146)
T20 construct: purchased Eurofins DiscoverX KINOMEscan
Outline: as §1

NEK4 = target: T21, NEK4 (Homo sapiens, UniProt P51957)
T21 construct: purchased Eurofins DiscoverX KINOMEscan
Outline: as §1

NEK7 = target: T22, NEK7 (Homo sapiens, UniProt Q8TDX7)
T22 construct: purchased Eurofins DiscoverX KINOMEscan
Outline: as §1

NLK = target: T23, NLK (Homo sapiens, UniProt Q9UBE8)
T23 construct: purchased Eurofins DiscoverX KINOMEscan
Outline: as §2

PCTK3 = target: T24, PCTK3 (Homo sapiens, UniProt Q07002)
T24 construct: purchased Eurofins DiscoverX KINOMEscan
Outline: as §1

PDGFRA = target: T25, PDGFRA (Homo sapiens, UniProt P16234)
T25 construct: purchased Eurofins DiscoverX KINOMEscan
Outline: as §2

PIK3CA (E545K) = target: T26, PIK3CA (E545K) (Homo sapiens, UniProt P42336, E545K)
T26 construct: purchased Eurofins DiscoverX KINOMEscan
T26 sequence (P42336 whole entry E545K): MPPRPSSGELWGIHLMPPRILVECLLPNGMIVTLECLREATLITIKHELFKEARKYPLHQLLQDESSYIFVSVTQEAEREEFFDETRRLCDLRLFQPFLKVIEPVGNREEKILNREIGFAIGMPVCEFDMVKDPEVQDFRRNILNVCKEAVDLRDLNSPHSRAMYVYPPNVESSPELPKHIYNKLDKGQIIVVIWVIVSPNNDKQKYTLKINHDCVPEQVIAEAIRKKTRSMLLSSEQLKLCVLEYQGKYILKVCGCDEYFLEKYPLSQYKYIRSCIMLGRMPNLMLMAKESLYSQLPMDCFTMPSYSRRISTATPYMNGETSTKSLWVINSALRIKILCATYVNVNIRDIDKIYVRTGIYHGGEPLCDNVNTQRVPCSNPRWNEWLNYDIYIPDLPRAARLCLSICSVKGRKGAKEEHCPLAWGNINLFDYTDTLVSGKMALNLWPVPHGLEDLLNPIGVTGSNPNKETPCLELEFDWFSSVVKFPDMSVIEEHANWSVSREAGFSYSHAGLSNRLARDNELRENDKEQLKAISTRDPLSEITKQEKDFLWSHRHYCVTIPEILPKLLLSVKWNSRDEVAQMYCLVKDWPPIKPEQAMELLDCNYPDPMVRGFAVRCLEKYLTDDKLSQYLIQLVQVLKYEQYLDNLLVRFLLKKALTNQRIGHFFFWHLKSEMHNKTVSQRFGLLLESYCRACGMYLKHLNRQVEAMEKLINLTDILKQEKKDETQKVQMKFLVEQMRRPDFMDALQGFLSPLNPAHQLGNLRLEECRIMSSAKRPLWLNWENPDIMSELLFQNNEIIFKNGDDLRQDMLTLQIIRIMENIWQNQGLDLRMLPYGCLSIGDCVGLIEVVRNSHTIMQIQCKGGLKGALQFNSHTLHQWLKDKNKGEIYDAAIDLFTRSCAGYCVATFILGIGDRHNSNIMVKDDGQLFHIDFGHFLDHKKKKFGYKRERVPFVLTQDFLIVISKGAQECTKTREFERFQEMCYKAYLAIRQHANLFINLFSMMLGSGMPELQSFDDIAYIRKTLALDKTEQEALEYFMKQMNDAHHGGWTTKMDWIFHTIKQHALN
Outline: as §1

PIP5K2C = target: T27, PIP5K2C (Homo sapiens, UniProt Q8TBX8)
T27 construct: purchased Eurofins DiscoverX KINOMEscan
Outline: as §2

PLK1 = target: T28, PLK1 (Homo sapiens, UniProt P53350)
T28 construct: purchased Eurofins DiscoverX KINOMEscan
Outline: as §1

PRKCQ = target: T29, PRKCQ (Homo sapiens, UniProt Q04759)
T29 construct: purchased Eurofins DiscoverX KINOMEscan
Outline: as §1

RET = target: T30, RET (Homo sapiens, UniProt P07949)
T30 construct: purchased Eurofins DiscoverX KINOMEscan
T30 sequence (P07949 29-1114): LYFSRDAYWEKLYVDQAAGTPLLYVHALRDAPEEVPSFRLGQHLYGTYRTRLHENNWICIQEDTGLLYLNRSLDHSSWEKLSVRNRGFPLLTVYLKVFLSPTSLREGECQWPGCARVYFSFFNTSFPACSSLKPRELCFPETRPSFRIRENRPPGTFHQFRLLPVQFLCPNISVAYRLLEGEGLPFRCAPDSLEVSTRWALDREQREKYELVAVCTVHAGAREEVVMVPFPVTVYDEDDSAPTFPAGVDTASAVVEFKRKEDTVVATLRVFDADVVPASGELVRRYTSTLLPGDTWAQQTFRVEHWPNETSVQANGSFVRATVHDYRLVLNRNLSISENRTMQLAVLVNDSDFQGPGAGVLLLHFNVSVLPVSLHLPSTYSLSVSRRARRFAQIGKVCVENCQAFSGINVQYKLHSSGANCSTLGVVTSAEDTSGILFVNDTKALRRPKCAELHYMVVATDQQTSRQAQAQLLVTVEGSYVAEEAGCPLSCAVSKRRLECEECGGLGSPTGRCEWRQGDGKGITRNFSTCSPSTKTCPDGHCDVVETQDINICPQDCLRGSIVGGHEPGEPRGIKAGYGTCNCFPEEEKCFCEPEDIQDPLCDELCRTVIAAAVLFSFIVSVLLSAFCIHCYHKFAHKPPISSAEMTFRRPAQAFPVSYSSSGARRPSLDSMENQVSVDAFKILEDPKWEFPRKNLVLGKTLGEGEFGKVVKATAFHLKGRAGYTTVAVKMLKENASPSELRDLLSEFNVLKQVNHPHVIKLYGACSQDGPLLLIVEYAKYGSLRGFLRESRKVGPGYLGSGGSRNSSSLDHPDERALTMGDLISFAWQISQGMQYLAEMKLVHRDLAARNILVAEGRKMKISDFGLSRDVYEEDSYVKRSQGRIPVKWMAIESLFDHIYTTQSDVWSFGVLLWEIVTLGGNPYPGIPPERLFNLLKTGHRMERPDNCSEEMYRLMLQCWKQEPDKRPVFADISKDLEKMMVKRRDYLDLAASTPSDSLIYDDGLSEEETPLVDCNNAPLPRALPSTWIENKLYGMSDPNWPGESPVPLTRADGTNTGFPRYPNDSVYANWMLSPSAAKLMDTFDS
Outline: as §1

RET (M918T) = target: T31, RET (M918T) (Homo sapiens, UniProt P07949, M918T)
T31 construct: purchased Eurofins DiscoverX KINOMEscan
T31 sequence (P07949 29-1114 M918T): as the sequence (P07949 29-1114) above, with M890T counted along it
Outline: as §1

[1] = target: T32, RPS6KA5 (Kin. Dom.2-C-term.) (Homo sapiens, UniProt O75582)
T32 construct: RPS6KA5 (Kin. Dom.2-C-term.); purchased Eurofins DiscoverX KINOMEscan
Outline: as §2

SGK2 = target: T33, SGK2 (Homo sapiens, UniProt Q9HBY8)
T33 construct: purchased Eurofins DiscoverX KINOMEscan
Outline: as §1

STK33 = target: T34, STK33 (Homo sapiens, UniProt Q9BYT3)
T34 construct: purchased Eurofins DiscoverX KINOMEscan
Outline: as §1

STK36 = target: T35, STK36 (Homo sapiens, UniProt Q9NRP7)
T35 construct: purchased Eurofins DiscoverX KINOMEscan
Outline: as §2

TYK2 (JH1 domain-cat.) = target: T36, TYK2 (JH1 domain-cat.) (Homo sapiens, UniProt P29597)
T36 construct: TYK2 (JH1 domain-cat.); purchased Eurofins DiscoverX KINOMEscan
Outline: as §1

[2] = target: T37, TYK2 (JH2 domain-pseudokinase) (Homo sapiens, UniProt P29597)
T37 construct: TYK2 (JH2 domain-pseudokinase); purchased Eurofins DiscoverX KINOMEscan
Outline: as §1

YANK3 = target: T38, YANK3 (Homo sapiens, UniProt Q86UX6)
T38 construct: purchased Eurofins DiscoverX KINOMEscan
Outline: as §1

O=C1Nc2c(cc([N+](=O)[O-])c3c2CCCC3)C1=NO [Compound 5d, 3-(Hydroxyimino)-5-nitro-1,3,6,7,8,9-hexahydro-2H-benzo[g]indol-2-one]
inhibition at 10 µM (ALK (C1156Y)): 43%
inhibition at 10 µM (CAMK1D): 65%
inhibition at 10 µM (CDC2L5): 13%
inhibition at 10 µM (CLK2): 95.9%
inhibition at 10 µM (CSF1R-autoinhibited): 37%
inhibition at 10 µM (DYRK2): 81%
inhibition at 10 µM (EGFR (L858R)): 17%
inhibition at 10 µM (EIF2AK1): 40%
inhibition at 10 µM (EPHA7): 9%
inhibition at 10 µM (EPHB6): 80%
inhibition at 10 µM (ERBB3): 0%
inhibition at 10 µM (ERN1): 29%
inhibition at 10 µM (FLT3 (D835H)): 35%
inhibition at 10 µM (GRK1): 67%
inhibition at 10 µM (IKK-ε): 23%
inhibition at 10 µM (KIT (D816H)): 1%
inhibition at 10 µM (KIT (D816V)): 22%
inhibition at 10 µM (KIT-autoinhibited): 0%
inhibition at 10 µM (LIMK1): 0%
inhibition at 10 µM (MUSK): 0%
inhibition at 10 µM (NEK4): 1%
inhibition at 10 µM (NEK7): 26%
inhibition at 10 µM (NLK): 11%
inhibition at 10 µM (PCTK3): 0%
inhibition at 10 µM (PDGFRA): 0%
inhibition at 10 µM (PIK3CA (E545K)): 0%
inhibition at 10 µM (PIP5K2C): 40%
inhibition at 10 µM (PLK1): 71%
inhibition at 10 µM (PRKCQ): 7%
inhibition at 10 µM (RET): 8%
inhibition at 10 µM (RET (M918T)): 8%
inhibition at 10 µM [1]: 89.4%
inhibition at 10 µM (SGK2): 88%
inhibition at 10 µM (STK33): 62%
inhibition at 10 µM (STK36): 10%
inhibition at 10 µM (TYK2 (JH1 domain-cat.)): 90%
inhibition at 10 µM [2]: 89.8%
inhibition at 10 µM (YANK3): 0%
